Experimental data from patent US20240116985A1, “STAPLED PEPTIDES AND METHODS THEREOF” (priority 2020, published 2024).

Legend:
[1] = biological target: T1, full-length beta-Catenin (Uniprot ID P35222) (Homo sapiens, UniProt P35222); assay: Fluorescence polarization IC50 (beta-catenin / 5FAM-TCF4 10-53 competition); type: binding; details: fluorescence polarization; read-out: beta-Catenin FP IC50
T1 construct: 10 nM full-length beta-Catenin (Uniprot ID P35222)
T1 sequence (P35222 1-781): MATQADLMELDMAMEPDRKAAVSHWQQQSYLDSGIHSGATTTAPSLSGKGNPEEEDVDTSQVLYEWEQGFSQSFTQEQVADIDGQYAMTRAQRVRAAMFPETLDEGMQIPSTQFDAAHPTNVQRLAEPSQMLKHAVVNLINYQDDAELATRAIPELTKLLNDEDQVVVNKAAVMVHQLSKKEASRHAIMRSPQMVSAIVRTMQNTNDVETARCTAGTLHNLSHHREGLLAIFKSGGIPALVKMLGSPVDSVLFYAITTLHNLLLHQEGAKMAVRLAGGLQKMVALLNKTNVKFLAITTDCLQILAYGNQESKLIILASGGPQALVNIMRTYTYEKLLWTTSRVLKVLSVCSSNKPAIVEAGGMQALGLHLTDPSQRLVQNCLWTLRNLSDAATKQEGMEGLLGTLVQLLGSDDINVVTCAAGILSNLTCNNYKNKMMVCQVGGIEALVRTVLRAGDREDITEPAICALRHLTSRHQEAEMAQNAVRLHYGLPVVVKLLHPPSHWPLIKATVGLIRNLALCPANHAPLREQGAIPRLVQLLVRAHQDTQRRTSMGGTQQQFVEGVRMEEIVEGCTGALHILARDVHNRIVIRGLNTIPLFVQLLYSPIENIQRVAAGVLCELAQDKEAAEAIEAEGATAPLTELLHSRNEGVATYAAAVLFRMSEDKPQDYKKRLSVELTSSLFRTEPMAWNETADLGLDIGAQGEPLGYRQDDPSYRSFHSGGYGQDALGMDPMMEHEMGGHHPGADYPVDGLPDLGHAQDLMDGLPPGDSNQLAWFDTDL

[2] = biological target: T2, beta-catenin/TCF4 engagement (Homo sapiens, UniProt P35222); assay: Nano-BRET target engagement assay (B-cat-Halo & TCF4-Luc in HEK293 cells); type: cell-based; details: absolute IC50; read-out: NanoBRET Abs IC50
T2 construct: expressed in transfected cells; host or cells: HEK293
T2 sequence (P35222 1-781): T1 sequence (P35222 1-781)

Row | SMILES | IC50 [1] [nM] | IC50 [2] [nM]
1 | CC(=O)N1CCC[C@]12CC=CCCCC1(CCCC=CCCCCCC[C@@](C)(C(=O)N[C@@H](Cc3ccccc3)C(=O)N[C@@H](Cc3csc4ccccc34)C(=O)N[C@@H](CCC(N)=O)C(N)=O)NC(=O)[C@H](CCC(N)=O)NC(=O)[C@H](Cc3ccccc3)NC(=O)[C@H](C)NC(=O)[C@H](C)NC(=O)[C@H](CCC(=O)O)NC(=O)[C@H](CC(=O)O)NC1=O)NC(=O)[C@H](CO)NC(=O)[C@H](CC(=O)O)NC2=O (stereo partly drawn) [I-1527, Ac-PL3-Asp-Ser-B5-Asp-Glu-Ala-Ala-Phe-Gln-S8-Phe-BztA-Gln-NH2] | 36 | 30300
2 | CC(=O)N1CCC[C@]12CC=CCCCC1(CCCC=CCCCCCC[C@@](C)(C(=O)N[C@@H](Cc3ccccc3)C(=O)N[C@@H](Cc3csc4ccccc34)C(=O)N[C@@H](CCC(N)=O)C(N)=O)NC(=O)[C@H](CC(C)C)NC(=O)[C@H](Cc3ccccc3)NC(=O)[C@H](C)NC(=O)[C@H](C)NC(=O)[C@H](CCC(=O)O)NC(=O)[C@H](CC(=O)O)NC1=O)NC(=O)[C@H](CO)NC(=O)[C@H](CC(=O)O)NC2=O (stereo partly drawn) [I-1528, Ac-PL3-Asp-Ser-B5-Asp-Glu-Ala-Ala-Phe-Leu-S8-Phe-BztA-Gln-NH2] | 102 | 31400
3 | CC(=O)N1CCC[C@]12CC=CCCCC1(CCCC=CCCCCCC[C@@](C)(C(=O)N[C@@H](Cc3ccccc3)C(=O)N[C@@H](Cc3csc4ccccc34)C(=O)N[C@@H](CCC(N)=O)C(N)=O)NC(=O)[C@H](CC(C)C)NC(=O)[C@H](Cc3ccccc3)NC(=O)[C@H](C)NC(=O)[C@H](C)NC(=O)[C@H](CCC(=O)O)NC(=O)[C@H](CC(=O)O)NC1=O)NC(=O)[C@H](CC(N)=O)NC(=O)[C@H](CC(=O)O)NC2=O (stereo partly drawn) [I-1533, Ac-PL3-Asp-Asn-B5-Asp-Glu-Ala-Ala-Phe-Leu-S8-Phe-BztA-Gln-NH2] | 76 | > 20000
4 | CC(=O)N1CCC[C@]12CC=CCCCC1(CCCC=CCCCCCC[C@@](C)(C(=O)N[C@@H](Cc3ccccc3)C(=O)N[C@@H](Cc3csc4ccccc34)C(=O)N[C@@H](CCC(N)=O)C(N)=O)NC(=O)[C@H](CCO)NC(=O)[C@H](Cc3ccccc3)NC(=O)[C@H](C)NC(=O)[C@H](C)NC(=O)[C@H](CCC(=O)O)NC(=O)[C@H](CC(=O)O)NC1=O)NC(=O)[C@H](CCC(C)C)NC(=O)[C@H](CC(=O)O)NC2=O (stereo partly drawn) [I-1537, Ac-PL3-Asp-Hleu-B5-Asp-Glu-Ala-Ala-Phe-Hse-S8-Phe-BztA-Gln-NH2] | 31 | 13900
5 | CC(=O)N1CCC[C@]12CC=CCCCC1(CCCC=CCCCCCC[C@@](C)(C(=O)N[C@@H](Cc3ccccc3)C(=O)N[C@@H](Cc3csc4ccccc34)C(=O)N[C@@H](CCC(N)=O)C(N)=O)NC(=O)[C@H](CCO)NC(=O)[C@H](Cc3ccccc3)NC(=O)[C@H](C)NC(=O)[C@H](C)NC(=O)[C@H](CCC(=O)O)NC(=O)[C@H](CC(=O)O)NC1=O)NC(=O)[C@H](CCC(C)C)NC(=O)[C@H](CC(=O)O)NC2=O (stereo partly drawn) [I-1538, Ac-PL3-Asp-Hleu-B5-Asp-Glu-Ala-Ala-Phe-Hse-S8-Phe-BztA-Gln-NH2] | 21 | 11800
6 | CC(=O)N1CCC[C@]12CC=CCCCC1(CCCC=CCCCCCC[C@@](C)(C(=O)N[C@@H](Cc3ccccc3)C(=O)N[C@@H](Cc3csc4ccccc34)C(=O)N[C@@H](CCC(N)=O)C(N)=O)NC(=O)[C@H](CCC(N)=O)NC(=O)[C@H](Cc3ccccc3)NC(=O)[C@H](C)NC(=O)[C@H](C)NC(=O)[C@H](CCC(=O)O)NC(=O)[C@H](CC(=O)O)NC1=O)NC(=O)[C@H](CCC(N)=O)NC(=O)[C@H](CC(=O)O)NC2=O (stereo partly drawn) [I-1539, Ac-PL3-Asp-Gln-B5-Asp-Glu-Ala-Ala-Phe-Gln-S8-Phe-BztA-Gln-NH2] | 36 | > 20000

Next, values leading:

Row | IC50 [1] [nM] | IC50 [2] [nM] | SMILES
7 | 61 | 36900 | CC(=O)N1CCC[C@]12CC=CCCCC1(CCCC=CCCCCCC[C@@](C)(C(=O)N[C@@H](Cc3ccccc3)C(=O)N[C@@H](Cc3csc4ccccc34)C(=O)N[C@@H](CCC(N)=O)C(N)=O)NC(=O)[C@H](CCO)NC(=O)[C@H](Cc3ccccc3)NC(=O)[C@H](C)NC(=O)[C@H](C)NC(=O)[C@H](CCC(=O)O)NC(=O)[C@H](CC(=O)O)NC1=O)NC(=O)[C@H](CO)NC(=O)[C@H](CC(=O)O)NC2=O (stereo partly drawn) [I-1530, Ac-PL3-Asp-Ser-B5-Asp-Glu-Ala-Ala-Phe-Hse-S8-Phe-BztA-Gln-NH2]
8 | 84 | > 20000 | CC(=O)N1CCC[C@]12CC=CCCCC1(CCCC=CCCCCCC[C@@](C)(C(=O)N[C@@H](Cc3ccccc3)C(=O)N[C@@H](Cc3csc4ccccc34)C(=O)N[C@@H](CCC(N)=O)C(N)=O)NC(=O)[C@H](CCC(N)=O)NC(=O)[C@H](Cc3ccccc3)NC(=O)[C@H](C)NC(=O)[C@H](C)NC(=O)[C@H](CCC(=O)O)NC(=O)[C@H](CC(=O)O)NC1=O)NC(=O)[C@H](CC(N)=O)NC(=O)[C@H](CC(=O)O)NC2=O (stereo partly drawn) [I-1531, Ac-PL3-Asp-Asn-B5-Asp-Glu-Ala-Ala-Phe-Gln-S8-Phe-BztA-Gln-NH2]
9 | 49 | > 20000 | CC(=O)N1CCC[C@]12CC=CCCCC1(CCCC=CCCCCCC[C@@](C)(C(=O)N[C@@H](Cc3ccccc3)C(=O)N[C@@H](Cc3csc4ccccc34)C(=O)N[C@@H](CCC(N)=O)C(N)=O)NC(=O)[C@H](CCC(N)=O)NC(=O)[C@H](Cc3ccccc3)NC(=O)[C@H](C)NC(=O)[C@H](C)NC(=O)[C@H](CCC(=O)O)NC(=O)[C@H](CC(=O)O)NC1=O)NC(=O)[C@H](CC(N)=O)NC(=O)[C@H](CC(=O)O)NC2=O (stereo partly drawn) [I-1532, Ac-PL3-Asp-Asn-B5-Asp-Glu-Ala-Ala-Phe-Gln-S8-Phe-BztA-Gln-NH2]
10 | 181 | > 20000 | CC(=O)N1CCC[C@]12CC=CCCCC1(CCCC=CCCCCCC[C@@](C)(C(=O)N[C@@H](Cc3ccccc3)C(=O)N[C@@H](Cc3csc4ccccc34)C(=O)N[C@@H](CCC(N)=O)C(N)=O)NC(=O)[C@H](CCO)NC(=O)[C@H](Cc3ccccc3)NC(=O)[C@H](C)NC(=O)[C@H](C)NC(=O)[C@H](CCC(=O)O)NC(=O)[C@H](CC(=O)O)NC1=O)NC(=O)[C@H](CC(N)=O)NC(=O)[C@H](CC(=O)O)NC2=O (stereo partly drawn) [I-1534, Ac-PL3-Asp-Asn-B5-Asp-Glu-Ala-Ala-Phe-Hse-S8-Phe-BztA-Gln-NH2]
11 | 72 | > 20000 | CC(=O)N1CCC[C@]12CC=CCCCC1(CCCC=CCCCCCC[C@@](C)(C(=O)N[C@@H](Cc3ccccc3)C(=O)N[C@@H](Cc3csc4ccccc34)C(=O)N[C@@H](CCC(N)=O)C(N)=O)NC(=O)[C@H](CCO)NC(=O)[C@H](Cc3ccccc3)NC(=O)[C@H](C)NC(=O)[C@H](C)NC(=O)[C@H](CCC(=O)O)NC(=O)[C@H](CC(=O)O)NC1=O)NC(=O)[C@H](CC(N)=O)NC(=O)[C@H](CC(=O)O)NC2=O (stereo partly drawn) [I-1535, Ac-PL3-Asp-Asn-B5-Asp-Glu-Ala-Ala-Phe-Hse-S8-Phe-BztA-Gln-NH2]
12 | 61 | > 20000 | CC(=O)N1CCC[C@]12CC=CCCCC1(CCCC=CCCCCCC[C@@](C)(C(=O)N[C@@H](Cc3ccccc3)C(=O)N[C@@H](Cc3csc4ccccc34)C(=O)N[C@@H](CCC(N)=O)C(N)=O)NC(=O)[C@H](CCC(N)=O)NC(=O)[C@H](Cc3ccccc3)NC(=O)[C@H](C)NC(=O)[C@H](C)NC(=O)[C@H](CCC(=O)O)NC(=O)[C@H](CC(=O)O)NC1=O)NC(=O)[C@H](CCO)NC(=O)[C@H](CC(=O)O)NC2=O (stereo partly drawn) [I-1544, Ac-PL3-Asp-Hse-B5-Asp-Glu-Ala-Ala-Phe-Gln-S8-Phe-BztA-Gln-NH2]
